Like-named read-outs stand apart in the source and are kept apart here.
Tests used:
[1] = test system: Staphylococcus aureus (ATCC 29213); test: Checkerboard combination / MIC assay with S. aureus ATCC 29213; format: cell-based; conditions: S. aureus ATCC 29213; for MIC: Staphylococcus aureus, read-out: MIC of antibiotic alone
In short: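 CLSI broth microdilution checkerboard in CAMHB, final inoculum 5×10^5 CFU/mL, 2% DMSO. Ramizol or Chlopam (11-point 2-fold) crossed with commercial antibiotics (7-point), each starting at 4× MIC; synergy assessed by FIC index (sum of MIC-in-combination/MIC-alone ratios; ≤0.5 synergy, >4 antagonism).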

[2] = test system: Staphylococcus aureus (BAA-1717); test: Checkerboard combination / MIC assay with S. aureus BAA-1717 (MRSA); format: cell-based; conditions: for Effect of individual antibiotic combinations: S. aureus BAA-1717
In short: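 CLSI broth microdilution checkerboard in CAMHB (5×10^5 CFU/mL, 2% DMSO final). Ramizol or Chlopam was tested in 11-point two-fold series against 7-point antibiotic titrations, starting at 4× MIC.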

## C/C(=C\C(=O)OCCCCCCCCC(=O)O)C[C@@H]1OC[C@H](C[C@@H]2O[C@H]2[C@@H](C)[C@H](C)O)[C@@H](O)[C@H]1O [Mupirocin]
[1]; Chlopam 0.003906 μg/mL + labelled antibiotic at MIC of same cell
  FICI of combination with Chlopam: 1.0
[1]; Chlopam 0.003906 μg/mL
  MIC of antibiotic in combination with Chlopam: 0.5 µg/mL
[1]; Chlopam 0.0078125 μg/mL + labelled antibiotic at MIC of same cell
  FICI of combination with Chlopam: 1.0
[1]; Chlopam 0.0078125 μg/mL
  MIC of antibiotic in combination with Chlopam: 0.5 µg/mL
[1]; Chlopam 0.015625 μg/mL + labelled antibiotic at MIC of same cell
  FICI of combination with Chlopam: 1.0
[1]; Chlopam 0.015625 μg/mL
  MIC of antibiotic in combination with Chlopam: 0.5 µg/mL
[1]; Chlopam 0.25 μg/mL + labelled antibiotic at MIC of same cell
  FICI of combination with Chlopam: 1.0
[1]; Chlopam 0.25 μg/mL
  MIC of antibiotic in combination with Chlopam: 0.25 µg/mL
[1]; Chlopam and mupirocin: 0.003901 and 0.5, 0.0078125 and 0.5, 0.015625 and 0.5, 0.25 and 0.25 μg/mL
  Effect of individual antibiotic combinations: additive effect
[1]; Ramizol 0.015625 μg/mL + labelled antibiotic at MIC of same cell
  FICI of combination with Ramizol: 1.0
[1]; Ramizol 0.015625 μg/mL
  MIC of antibiotic in combination with Ramizol: 0.5 µg/mL
[1]; Ramizol 0.03125 μg/mL + labelled antibiotic at MIC of same cell
  FICI of combination with Ramizol: 1.0
[1]; Ramizol 0.03125 μg/mL
  MIC of antibiotic in combination with Ramizol: 0.5 µg/mL
[1]; Ramizol 0.0625 μg/mL + labelled antibiotic at MIC of same cell
  FICI of combination with Ramizol: 1.0
[1]; Ramizol 0.0625 μg/mL
  MIC of antibiotic in combination with Ramizol: 0.5 µg/mL
[1]; Ramizol 0.125 μg/mL + labelled antibiotic at MIC of same cell
  FICI of combination with Ramizol: 1.0
[1]; Ramizol 0.125 μg/mL
  MIC of antibiotic in combination with Ramizol: 0.5 µg/mL
[1]; Ramizol 0.25 μg/mL + labelled antibiotic at MIC of same cell
  FICI of combination with Ramizol: 1.0
[1]; Ramizol 0.25 μg/mL
  MIC of antibiotic in combination with Ramizol: 0.5 µg/mL
[1]; Ramizol and mupirocin: 0.015625 and 0.5, 0.03125 and 0.5, 0.0625 and 0.5, 0.125 and 0.5, 0.25 and 0.5 μg/mL
  Effect of individual antibiotic combinations: additive effect
[1]; ATCC29213, Table 4, checkerboard series with Chlopam
  MIC: 0.5 µg/mL
[1]; ATCC29213, Table 7, checkerboard series with Ramizol
  MIC: 0.5 µg/mL
[1]; labelled antibiotic + Chlopam, mean of all pairwise combinations
  mean FICI of combination with Chlopam: 1.1
[1]; labelled antibiotic + Ramizol, mean of all pairwise combinations
  mean FICI of combination with Ramizol: 1.1
[2]; Chlopam 0.001953 μg/mL + labelled antibiotic at MIC of same cell, S. aureus ATCC BAA-1717
  FICI of combination with Chlopam: 1.0
[2]; Chlopam 0.001953 μg/mL, S. aureus ATCC BAA-1717
  MIC of antibiotic in combination with Chlopam: 0.5 µg/mL
[2]; Chlopam 0.003906 μg/mL + labelled antibiotic at MIC of same cell, S. aureus ATCC BAA-1717
  FICI of combination with Chlopam: 1.0
[2]; Chlopam 0.003906 μg/mL, S. aureus ATCC BAA-1717
  MIC of antibiotic in combination with Chlopam: 0.5 µg/mL
[2]; Chlopam 0.0078125 μg/mL + labelled antibiotic at MIC of same cell, S. aureus ATCC BAA-1717
  FICI of combination with Chlopam: 1.0
[2]; Chlopam 0.0078125 μg/mL, S. aureus ATCC BAA-1717
  MIC of antibiotic in combination with Chlopam: 0.5 µg/mL
[2]; Chlopam 0.015625 μg/mL + labelled antibiotic at MIC of same cell, S. aureus ATCC BAA-1717
  FICI of combination with Chlopam: 1.0
[2]; Chlopam 0.015625 μg/mL, S. aureus ATCC BAA-1717
  MIC of antibiotic in combination with Chlopam: 0.5 µg/mL
[2]; Chlopam 0.5 μg/mL + labelled antibiotic at MIC of same line, S. aureus ATCC BAA-1717
  FICI of combination with Chlopam: 1.0
[2]; Chlopam 0.5 μg/mL, S. aureus ATCC BAA-1717
  MIC of antibiotic in combination with Chlopam: 0.016 µg/mL
[2]; Chlopam and mupirocin: 0.001953 and 0.5, 0.003901 and 0.5, 0.0078125 and 0.5, 0.015625 and 0.5, 0.5 and 0.016 μg/mL
  Effect of individual antibiotic combinations: additive effect
[2]; Ramizol 0.015625 μg/mL + labelled antibiotic at MIC of same cell, S. aureus ATCC BAA-1717
  FICI of combination with Ramizol: 1.0
[2]; Ramizol 0.015625 μg/mL, S. aureus ATCC BAA-1717
  MIC of antibiotic in combination with Ramizol: 0.5 µg/mL
[2]; Ramizol 0.03125 μg/mL + labelled antibiotic at MIC of same cell, S. aureus ATCC BAA-1717
  FICI of combination with Ramizol: 1.0
[2]; Ramizol 0.03125 μg/mL, S. aureus ATCC BAA-1717
  MIC of antibiotic in combination with Ramizol: 0.5 µg/mL
[2]; Ramizol 0.0625 μg/mL + labelled antibiotic at MIC of same cell, S. aureus ATCC BAA-1717
  FICI of combination with Ramizol: 1.0
[2]; Ramizol 0.0625 μg/mL, S. aureus ATCC BAA-1717
  MIC of antibiotic in combination with Ramizol: 0.5 µg/mL
[2]; Ramizol 0.125 μg/mL + labelled antibiotic at MIC of same line, S. aureus ATCC BAA-1717
  FICI of combination with Ramizol: 1.0
[2]; Ramizol 0.125 μg/mL, S. aureus ATCC BAA-1717
  MIC of antibiotic in combination with Ramizol: 0.5 µg/mL
[2]; Ramizol 4 μg/mL + labelled antibiotic at MIC of same cell, S. aureus ATCC BAA-1717
  FICI of combination with Ramizol: 1.0
[2]; Ramizol 4 μg/mL, S. aureus ATCC BAA-1717
  MIC of antibiotic in combination with Ramizol: 0.016 µg/mL
[2]; Ramizol and mupirocin: 0.015625 and 0.5, 0.03125 and 0.5, 0.0625 and 0.5, 0.125 and 0.5, 4 and 0.016 μg/mL
  Effect of individual antibiotic combinations: additive effect
[2]; Staphylococcus aureus, ATCC BAA-1717 / BAA-1717, Table 4, checkerboard series with Chlopam, S. aureus ATCC BAA-1717, read-out: MIC of antibiotic alone
  MIC: 0.5 µg/mL
[2]; labelled antibiotic + Chlopam, mean of all pairwise combinations, S. aureus ATCC BAA-1717
  mean FICI of combination with Chlopam: 1.2
[2]; labelled antibiotic + Ramizol, mean of all pairwise combinations, S. aureus ATCC BAA-1717
  mean FICI of combination with Ramizol: (1.2)

Reference: US20190328691A1, “ANTIBIOTIC THERAPY” (Boulos & Cooper Pharmaceuticals Pty Ltd, priority 2015, published 2019)
